Laboratory results published in patent US11352405B2, “GLP-1/glucagon receptor agonists in the treatment of fatty liver disease and steatohepatitis” (SANOFI, priority 2017, dated 2022).
Starred links: 1 amine or outer side, 2 acyl side, 3 side chain; linkers in the order of their positions; H or OH if unused. Non-standard residues stand in square brackets, D forms with d. Groups on a side chain read outwards from the residue. No end group written: not given here. Stea = stearoyl, (S)-4-carboxy-4-octadecanoylamino-butyryl on Lys via γGlu; γGlu = O=C(O)[C@H](CCC(=O)[*:2])N[*:1]

Tests used:
[1] = test system: mice with AMLN-diet-induced NASH; assay: murine diet-induced NASH model (AMLN diet), eight-week treatment; assay type: in vivo, C57BL/6J mice
Description: Test compounds were investigated in a mouse model of NASH (murine diet-induced NASH model) as described in Kristiansen et al (World Journal of Hepatology 2016, vol. 8, pp. 673-684). C57BL/6J mice were given ad libitum access to a diet (D09100301, Research Diet, United States) high in fat (40%, of these 18% trans-fat), carbohydrates (40%, of these 20% fructose) and cholesterol (2%) that has previously been described as AMLN diet ([…] et al., Am J Physiol Gastrointest Liver Physiol 2013, vol. 305, pp. G483-G495). A control group was kept on regular rodent chow (Altromin 1324, Brogaarden, Denmark). After 26 weeks on the diet, a liver biopsy was performed for histological assessment of NASH and fibrosis at baseline. For this purpose, about 100 mg liver tissue were collected from the left lateral lobe, fixed overnight in 4% paraformaldehyde, paraffin-embedded and sectioned (3 μm thickness). For histological assessment, sections were stained with hematoxylin, eosin or Sirius Red and followed by analysis with Visiomorph software (Visiopharm, Denmark). Histological scoring was performed by a pathologist blinded to the study. NAFLD activity score and fibrosis score were determined according to the clinical criteria outlined by Kleiner et al (Hepatology 2005, […], pp. 1313-1321). Animals were randomized into different treatment groups according to body weight and extent of fibrosis. Treatment period was eight weeks during which animals remained on the AMLN diet. Compounds were given by once-daily or twice-daily subcutaneous injection. Vehicle-treated animals on AMLN diet and non-treated animals on regular rodent chow were included as controls. Group sizes were between 8 and 14 animals. After treatment, terminal liver samples were collected and analysed as for the pre-biopsy. Dual-agonistic GLP1R/GCGR agonistic peptides were investigated in a murine model of NASH as described in the methods section. Treatment duration was eight weeks over which animals remained on the NASH-inducing AMLN diet. The GLP1R-specific agonist liraglutide (SEQ ID NO.: 4) was included as a reference compound. In the diet-induced murine NASH model, compounds were administered at the following doses (all via subcutaneous injections): SEQ ID NO.: 2 10 μg/kg b.i.d., SEQ ID NO.:3 30 μg/kg q.d. in comparison to liraglutide (SEQ ID NO.: 4) at 200 μg/kg q.d., SEQ ID NO.: 1 10 μg/kg b.i.d. or 30 μg/kg b.i.d. in comparison to liraglutide (SEQ ID NO.: 4) at 100 μg/kg b.i.d.

human GLP-1 receptor = human GLP-1 receptor (Homo sapiens, UniProt P43220); assay: binding to human GLP-1 receptor
human glucagon receptor = human glucagon receptor (Homo sapiens, UniProt P47871); assay: binding to human glucagon receptor
[2] = 10 μg/kg b.i.d. s.c., eight weeks, AMLN diet mice (FIG. 1A study)
[3] = 10 μg/kg b.i.d. s.c., eight weeks, vehicle increased by 0.2 points
[4] = 30 μg/kg twice daily s.c., eight weeks, AMLN diet mice (FIG. 3A study)

human glucagon receptor, sequence (P47871 26-477): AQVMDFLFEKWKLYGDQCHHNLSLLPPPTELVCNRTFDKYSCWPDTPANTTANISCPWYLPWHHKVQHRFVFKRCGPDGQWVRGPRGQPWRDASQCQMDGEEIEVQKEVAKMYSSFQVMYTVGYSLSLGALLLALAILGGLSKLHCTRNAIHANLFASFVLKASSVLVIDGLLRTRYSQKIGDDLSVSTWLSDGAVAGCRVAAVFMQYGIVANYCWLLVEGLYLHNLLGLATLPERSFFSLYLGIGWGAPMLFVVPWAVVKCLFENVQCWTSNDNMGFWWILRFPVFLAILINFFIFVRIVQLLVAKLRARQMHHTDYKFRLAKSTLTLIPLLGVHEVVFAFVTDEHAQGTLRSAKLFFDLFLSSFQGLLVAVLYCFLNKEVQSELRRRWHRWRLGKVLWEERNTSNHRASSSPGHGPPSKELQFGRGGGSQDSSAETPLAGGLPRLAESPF
human GLP-1 receptor, sequence (P43220 24-463): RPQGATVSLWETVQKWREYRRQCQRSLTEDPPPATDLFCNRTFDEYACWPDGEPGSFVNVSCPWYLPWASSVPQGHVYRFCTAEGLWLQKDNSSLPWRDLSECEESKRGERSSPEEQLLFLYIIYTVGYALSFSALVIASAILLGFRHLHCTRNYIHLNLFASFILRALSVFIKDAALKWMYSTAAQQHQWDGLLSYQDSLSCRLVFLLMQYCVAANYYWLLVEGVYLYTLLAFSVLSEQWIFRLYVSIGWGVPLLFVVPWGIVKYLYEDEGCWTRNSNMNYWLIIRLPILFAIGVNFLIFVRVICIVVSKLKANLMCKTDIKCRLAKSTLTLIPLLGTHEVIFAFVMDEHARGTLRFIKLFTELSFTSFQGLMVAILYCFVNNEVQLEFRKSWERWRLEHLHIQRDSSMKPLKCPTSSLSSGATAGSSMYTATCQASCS

H-dS-Q-G-T-F-T-S-D-L-S-K-Q-K(γE-Palm)-DSRRAQDFIEWLKNGGPSSGAPPPS-NH2 (HXQGTFTSDLSKQKDSRRAQDFIEWLKNGGPSSGAPPPS; D-Ser1; K14 γE-palmitoyl; C-terminal amide; Exendin-4 analogue; MOD_RES (2)..(2) Xaa is D-Ser; MOD_RES (14)..(14) Lys is functionalized at the amino side chain group as Lys((S)-4-carboxy-4-hexadecanoylamino-butyryl); MOD_RES (39)..(39) amidated C-terminus) [SEQ ID NO.: 2, exendin-4 derivative of formula A, dual GLP-1/glucagon receptor agonist]
mean fibrosis stage after treatment ([1]; 10 μg/kg b.i.d. s.c., after eight weeks, baseline 1.2, vehicle group did not change): 0.6
components of NAS (steatosis, inflammation and hepatocyte ballooning scores) ([1]; 10 μg/kg b.i.d. s.c., eight weeks (FIG. 1D)): reduction in score was seen for all three components of NAS
weight loss vs vehicle [1, 2]: 4.9 grams
weight loss vs vehicle, % of body weight at baseline [1, 2]: 13.5%
weight loss vs baseline ([1]; 10 μg/kg b.i.d. s.c., eight weeks, AMLN diet mice (FIG. 1A study), vehicle gained 2.1 grams): 2.8 gram
weight loss vs baseline (% of body weight) ([1]; 10 μg/kg b.i.d. s.c., eight weeks, AMLN diet mice (FIG. 1A study), vehicle gained 5.6%): 7.7%
reduction in NAFLD activity score (NAS) vs baseline [1, 3]: 2.3 points

H-dS-Q-G-T-F-T-S-D-L-S-K-Q-K(γE-Palm)-ESKAAQDFIEWLKAGGPSSGAPPPS-NH2 (HXQGTFTSDLSKQKESKAAQDFIEWLKAGGPSSGAPPPS; D-Ser1; K14 γE-palmitoyl; C-terminal amide; Exendin-4 analogue; MOD_RES (2)..(2) Xaa is D-Ser; MOD_RES (14)..(14) Lys is functionalized at the amino side chain group as Lys((S)-4-carboxy-4-hexadecanoylamino-butyryl); MOD_RES (39)..(39) amidated C-terminus) [SEQ ID NO.: 1, exendin-4 derivative of formula A, dual GLP-1/glucagon receptor agonist]
decrease in mean NAS vs baseline [1, 3]: 2.0 points
weight loss vs baseline ([1]; 10 μg/kg twice daily s.c., eight weeks, AMLN diet mice (FIG. 3A study), vehicle gained 0.5 grams): 3.0 grams
weight loss vs baseline (% of body weight) ([1]; 10 μg/kg twice daily s.c., eight weeks, AMLN diet mice (FIG. 3A study), vehicle gained 1.3%): 8.5%
decrease in mean NAS vs baseline ([1]; 30 μg/kg b.i.d. s.c., eight weeks, vehicle increased by 0.2 points, p<0.05 vs liraglutide): 1.9 points
weight loss vs baseline [1, 4]: 3.9 grams
weight loss vs baseline (% of body weight) [1, 4]: 11.4%
change in fibrosis vs baseline ([1]; both doses, 10 and 30 μg/kg b.i.d. s.c., eight weeks (FIG. 3E)): trend to an improvement in fibrosis
binding to human GLP-1 receptor (human GLP-1 receptor): good binding
binding to human glucagon receptor (human glucagon receptor): good binding

H-dS-Q-G-T-F-T-S-D-L-S-K-Q-K(γE-Stea)-DEQLAKDFIEWLKAGGPSSGAPPPS-NH2 (H[dS]QGTFTSDLSKQK([γGlu-Stea])DEQLAKDFIEWLKAGGPSSGAPPPS-NH2) [SEQ ID NO.: 3, exendin-4 derivative of formula A, dual GLP-1/glucagon receptor agonist]
weight loss vs baseline ([1]; 30 μg/kg q.d. s.c., eight weeks, AMLN diet mice (FIG. 2A study), vehicle gained 1.1 grams): 3.9 grams
weight loss vs baseline (% of body weight) ([1]; 30 μg/kg q.d. s.c., eight weeks, AMLN diet mice (FIG. 2A study), vehicle gained 3.0%): 10.5%
change in mean fibrosis score vs baseline ([1]; 30 μg/kg q.d. s.c., eight weeks, vehicle increased by 0.1 points): remained unchanged
decrease in NAS vs baseline ([1]; 30 μg/kg q.d. s.c., eight weeks, vehicle increased by 0.8 points, p<0.001 vs vehicle, p<0.05 vs liraglutide): 1.6 points
